Reference: patent US20020022718A1, “Genes identified as required for proliferation of E. coli” (priority 1999, published 2002)
In brackets after ≈: the same amount, converted by molar mass. Like-named read-outs stand apart in the source and are kept apart here. Bridge positions count the residues as written; N and C are the ends. Square brackets hold non-standard residues; d marks the D form. Peptide text beside a SMILES is read from it. * marks the point of attachment. Ileψ(thiazoline)Cys = CC[C@H](C)[C@H](N)C1=N[C@H](C(=O)*)CS1; dOrn = NCCC[C@@H](N)C(=O)O

B1: EcXA119: antisense clone insert to E. coli b2883 (nucleic acid, listed as Escherichia coli)
antisense: CTCTTTTTCTTCGAGATGGACGCAGTGAGCAAAGACACAGTTTTTACCGGTCAGGCCGTACTGATGGTAAACATCCAGATAACCATCATGGTCAGGATAAAGCGATTTCACCCAGGCAATTTCATCTTTGTTTTCACAGAGATGGGTATGTACCCACGTATCCGGATATTCTTCTTTCAGGCGTTGCGCCATCGCCATCTGTTCAGGAGATGAGGTCGGGGCGAAGCGTGGCGTAATCGCATATAGCAGACGACC

How the values were obtained:
[1] = system: Bacterial cells expressing antisense nucleic acid complementary to rplL and rplJ (50S ribosomal subunit proteins); experiment: microbe, parasite or virus in culture; format: cell-based, E. coli; details: for IC50: Escherichia coli; for Fold Increase in Sensitivity: IC50 −IPTG versus +IPTG (400 μM); for Sensitivity Increased?: significant decrease in IC50 in the presence of inducer IPTG
Experimental: Two-fold dilution series of antibiotics with a known mechanism of action are generated in the culture media selected for further assay development that has been supplemented with the antibiotic used to maintain the construct. A panel of test antibiotics known to act on different pathways is tested side by side with three to four wells being used to evaluate the effect of a test antibiotic on cell growth at each concentration. Equal volumes of test antibiotic and cells are added to the wells of a 384 well microtiter plate and mixed. Cells are prepared as described above using the media selected for assay development supplemented with the antibiotic required to maintain the antisense construct and are diluted 1:100 in identical media immediately prior to addition to the microtiter plate wells. For a control, cells are also added to several wells that contain the solvent used to dissolve the antibiotics but no antibiotic. Cell growth is monitored continuously by incubation at 37° C. in a microtiter plate reader monitoring the OD600 of the wells over an 18-hour period. […] A plot of percent inhibition against log[antibiotic concentration] allows extrapolation of an IC50 value for each antibiotic.
The culture media selected for use in the assay is supplemented with inducer at concentrations shown to inhibit cell growth by 50% and 80% as described above and the antibiotic used to maintain the construct. Two fold dilution series of the panel of test antibiotics used above are generated in each of these media. Several antibiotics are tested side by side with three to four wells being used to evaluate the effects of an antibiotic on cell growth at each concentration, in each media. Equal volumes of test antibiotic and cells are added to the wells of a 384 well microtiter plate and mixed. Cells are prepared as described above using the media selected for use in the assay supplemented with the antibiotic required to maintain the antisense construct. […] Immediately prior to addition to the microtiter plate wells, the cultures are adjusted to an appropriate OD600 (typically 0.002) by dilution into warm (37° C.) sterile media supplemented with identical concentrations of the inducer and antibiotic used to maintain the antisense construct. For a control, cells are also added to several wells that contain solvent used to dissolve test antibiotics but which contain no antibiotic. Cell growth is monitored continuously by incubation at 37° C. in a microtiter plate reader monitoring the OD600 of the wells over an 18-hour period. […] A plot of percent inhibition against log[antibiotic concentration] allows extrapolation of an IC50 value for each antibiotic.
Antibiotics of various chemical classes and modes of action were purchased from Sigma Chemicals (St. Louis, Mo.). Stock solutions were prepared by dissolving each antibiotic in an appropriate aqueous solution based on information provided by the manufacturer. The final working solution of each antibiotic contained no more than 0.2% (w/v) of any organic solvent. To determine their potency against a bacterial strain engineered for expression of an antisense complementary to a proliferation-required gene encoding 50S ribosomal protein, each antibiotic was serially diluted two or three fold in growth medium supplemented with the appropriate antibiotic for maintenance of the anti-sense construct. At least ten dilutions were prepared for each antibiotic. 25 μL aliquots of each dilution were transferred to discrete wells of a 384-well microplate (the assay plate) using a multi-channel pipette. Quadruplicate wells were used for each dilution of an antibiotic under each treatment condition (plus and minus inducer). Each assay plate contained twenty wells for cell growth controls (growth media replacing antibiotic), ten wells for each treatment (plus and minus inducer, in this example IPTG).

Klebsiella pneumoniae = experiment: Growth inhibition by induced E. coli antisense RNA in Klebsiella pneumoniae; format: cell-based; design: key: +: a positive in Table V below means that at least 10 fold more cells were required to observe a colony on the induced plate than on the non-induced plate; −: If there was no effect of antisense RNA expression in a microorganism, the clone is minus in Table V below; details: antisense RNA expression induced with IPTG, serial dilution plating
Experimental: To study the effects of transcriptional induction in liquid medium, growth curves were carried out by back diluting cultures 1:200 into fresh media with or without 1 mM IPTG and measuring the OD450 every 30 minutes (min). To study the effects of transcriptional induction on solid medium, 10^2, 10^3, 10^4, 10^5, 10^6, 10^7 and 10^8 fold dilutions of overnight cultures were prepared. Aliquots of from 0.5 to 3 μl of these dilutions were spotted on selective agar plates with or without 1 mM IPTG. After overnight incubation, the plates were compared to assess the sensitivity of the clones to IPTG.
Molecule No. EcXA190, encoding a portion of the b3052 gene of Escherichia coli, was either transformed directly into Enterobacter cloacae, Salmonella typhimurium and/or Klebsiella pneumoniae or subcloned into an expression vector functional in these species and the subclones transformed into these organisms. Suitable expression vectors are well known in the art. These expression vectors were introduced into Enterobacter cloacae, Salmonella typhimurium and/or Klebsiella pneumoniae cells that were then assayed for growth inhibition according to the method of Example 1. After growth in liquid culture, cells were plated at various serial dilutions and a score determined by calculating the log difference in growth for INDUCED vs. UNINDUCED antisense RNA expression as determined by the maximum 10 fold dilution at which a colony was observed. If there was no effect of antisense RNA expression in one organism, the clone is given a score of zero “0” in that organism. In contrast, a score of “8” means that 10^8 times more cells were required to observe a colony formed on the induced state than in the non-induced state under the conditions used and in that organism.
In addition, the above methods were validated using other antisense nucleic acids which inhibit the growth of E. coli which were identified using methods similar to those described above. Expression vectors which inhibited growth of E. coli upon induction of antisense RNA expression with IPTG were transformed directly into Enterobacter cloacae, Klebsiella pneumonia or Salmonella typhimurium. The transformed cells were then assayed for growth inhibition according to the method of Example 1. After growth in liquid culture, cells were plated at various serial dilutions and a score determined by calculating the log difference in growth for INDUCED vs. UNINDUCED antisense RNA expression as determined by the maximum 10 fold dilution at which a colony was observed. If there was no effect of antisense RNA expression in a microorganism, the clone is minus in Table V below. In contrast, a positive in Table V below means that at least 10 fold more cells were required to observe a colony on the induced plate than on the non-induced plate under the conditions used and in that microorganism.

Row | Molecule | IC50 ([1]; read-out: IC50 (+IPTG)) [µg/mL] | IC50 ([1]; read-out: IC50 (−IPTG)) [µg/mL] | Fold Increase in Sensitivity [1] | Sensitivity Increased? [1] | IC50 (+IPTG) ([1]; antisense to rplL and rplJ induced, 400 μM IPTG) [µg/mL] | IC50 (−IPTG) ([1]; non-induced cells, 0 μM IPTG) [µg/mL] | Sensitivity of K. pneumoniae to antisense nucleic acid (growth inhibition, induced vs. uninduced) (Klebsiella pneumoniae)
1 | CC[C@H](C)[C@H](N)C1=N[C@H](C(=O)N[C@@H](CC(C)C)C(=O)N[C@H](CCC(=O)O)C(=O)N[C@H](C(=O)N[C@H]2CCCCNC(=O)[C@H](CC(N)=O)NC(=O)[C@@H](CC(=O)O)NC(=O)[C@H](Cc3cnc[nH]3)NC(=O)[C@@H](Cc3ccccc3)NC(=O)[C@H]([C@@H](C)CC)NC(=O)[C@@H](CCCN)NC2=O)[C@@H](C)CC)CS1 [Bacitracin] ({Ileψ(thiazoline)Cys}-L[dE]IK[dOrn]I[dF]H[dD]N; lactam 4-C) | 4.68 (≈ 3.29 µM) | 4.08 (≈ 2.87 µM) | 1 | No |  |  | 
2 | CO/N=C(\C(=O)N[C@@H]1C(=O)N2C(C(=O)O)=C(COC(C)=O)CS[C@H]12)c1csc(N)n1 [Cefotaxime] | 0.0242 (≈ 0.053 µM) | 0.0243 (≈ 0.0534 µM) | 1 | No |  |  | 
3 | CO[C@@]1(NC(=O)Cc2cccs2)C(=O)N2C(C(=O)O)=C(COC(N)=O)CS[C@@H]21 [Cefoxitin] | 2.48 (≈ 5.81 µM) | 2.78 (≈ 6.51 µM) | 1 | No |  |  | 
4 | O=C(N[C@H](CO)[C@H](O)c1ccc([N+](=O)[O-])cc1)C(Cl)Cl [Chloramphenicol] | 0.00152 (≈ 0.00469 µM) | 0.465 (≈ 1.44 µM) | 307 | Yes |  |  | 
5 | C[C@H]1c2cccc(O)c2C(=O)C2=C(O)[C@]3(O)C(=O)C(C(N)=O)=C(O)[C@@H](N(C)C)[C@@H]3[C@@H](O)[C@@H]21 [Doxycycline] | 0.0278 (≈ 0.0626 µM) | 0.413 (≈ 0.929 µM) | 15 |  |  |  | 
6 | CC(=O)O[C@H]1C[C@@]2(C)[C@@H](C[C@@H](O)[C@H]3[C@@]4(C)CC[C@@H](O)[C@@H](C)[C@@H]4CC[C@@]32C)/C1=C(\CCC=C(C)C)C(=O)O [Fusidic acid] | 0.641 (≈ 1.24 µM) | 60 (≈ 116 µM) | 94 | Yes |  |  | 
7 | CCC[C@@H]1C[C@@H](C(=O)N[C@@H]([C@H]2O[C@H](SC)[C@H](O)[C@@H](O)[C@H]2O)[C@@H](C)O)N(C)C1 [Lincomycin] | 0.324 (≈ 0.797 µM) | 47.1 (≈ 116 µM) | 145 | Yes |  |  | 
8 | CN(C)c1ccc(O)c2c1C[C@H]1C[C@H]3[C@H](N(C)C)C(O)=C(C(N)=O)C(=O)[C@@]3(O)C(O)=C1C2=O [Minocycline] | 0.0039 (≈ 0.00852 µM) | 0.668 (≈ 1.46 µM) | 172 |  |  |  | 
9 | CC1COc2c(N3CCN(C)CC3)c(F)cc3c(=O)c(C(=O)O)cn1c23 (centres unmarked) [Ofloxacin] | 0.0459 (≈ 0.127 µM) | 0.0496 (≈ 0.137 µM) | 1 |  |  |  | 
10 | CN[C@@H]1[C@H](O)[C@H](NC)[C@H]2O[C@@]3(O)C(=O)C[C@@H](C)O[C@H]3O[C@@H]2[C@H]1O [Spectinomycin] | < 0.156 | 18.1 (≈ 54.3 µM) |  | Yes |  |  | 
11 | [H]/N=C(/N)N[C@H]1[C@H](O)[C@@H](O)[C@H](O[C@@H]2O[C@@H](C)[C@](O)(C=O)[C@H]2O[C@@H]2O[C@@H](CO)[C@H](O)[C@@H](O)[C@@H]2NC)[C@@H](N/C(N)=N\[H])[C@@H]1O [Streptomycin] | 0.161 (≈ 0.277 µM) | 11.3 (≈ 19.4 µM) | 70 | Yes |  |  | 
12 | CN(C)[C@@H]1C(O)=C(C(N)=O)C(=O)[C@@]2(O)C(O)=C3C(=O)c4c(O)cccc4[C@@](C)(O)[C@H]3C[C@@H]12 [Tetracycline] | 0.00183 (≈ 0.00412 µM) | 0.2 (≈ 0.449 µM) | 109 |  |  |  | 
13 | NC[C@H]1O[C@H](O[C@H]2[C@H](O)[C@@H](O[C@H]3O[C@H](CO)[C@@H](O)[C@H](N)[C@H]3O)[C@H](N)C[C@@H]2N)[C@H](N)C[C@@H]1O [Tobramycin] | 0.0706 (≈ 0.151 µM) | 3.59 (≈ 7.69 µM) | 51 | Yes |  |  | 
14 | CN[C@H](CC(C)C)C(=O)N[C@H]1C(=O)N[C@@H](CC(N)=O)C(=O)N[C@H]2C(=O)N[C@H]3C(=O)N[C@H](C(=O)N[C@H](C(=O)O)c4cc(O)cc(O)c4-c4cc3ccc4O)[C@H](O)c3ccc(c(Cl)c3)Oc3cc2cc(c3O[C@@H]2O[C@H](CO)[C@@H](O)[C@H](O)[C@H]2O[C@H]2C[C@](C)(N)[C@H](O)[C@H](C)O2)Oc2ccc(cc2Cl)[C@H]1O [Vancomycin] | 72.5 (≈ 50.1 µM) | 145 (≈ 100 µM) | 2 | No |  |  | 
15 | Gentamicin |  |  | 141 | Yes | 0.01919 | 2.715 | 
16 | B1 |  |  |  |  |  |  | −
